Like-named read-outs stand apart in the source and are kept apart here. Blank lines part the entries; values can stand above or below the compound they belong to.
Tests used:
THIK-1 channel [1] = assay: Basal current (I0) density of THIK-1 channel at 0 mV in HEK293T cells; format: cell-based; details: for Basal current (I0) density of THIK-1 channel: 0 mV, before agonist; for Basal current I0: THIK-1 & M1R
Text: (§1) Coding region of mGu2 (M1-P840) was amplified by conventional PCR with designed primers and the resulting product was subcloned into pEYFP-N1 vector at the BglII and EcoRI sites. The cDNAs for mouse THIK-2 channel and dimeric THIK channels were subcloned into pcDNA3.1(-) vector. To increase the surface membrane expression of the THIK-2 channel, 29 residues (Ser2-Ser30) were removed (ΔN-THIK-2). […] Ci-VSP-IRES-GFP vector was kindly gifted by Dr. Y. Okamura (Osaka University, Osaka, Japan). HEK293T cells or CHO-K1 cells were seeded on glasses and transfected with the plasmid DNAs for THIK channels, receptors and a transfection marker of yellow fluorescent protein (YFP). Electrophysiological experiments were performed 24–72 h after the transfection. […] Pertussis toxin (PTX) was purchased from Wako (Osaka, Japan). […] All reagents were dissolved at high concentration and stored at -20 °C as the stock solutions. The stock reagent solution was diluted at concentrations for the electrophysiological experiments. PTX was solved in the culture medium (final concentration, 300 ng/mL) and cells were incubated in it for more than 16 h. U73122 or U73343 (final concentration, 2 μM each) was dissolved in Hanks’ Balanced Salt Solution (HBSS, Invitrogen, Carlsbad, CA, USA) supplemented with 1 mM Ca^2+ and 0.3 mM Mg^2+. Cells were incubated in HBSS with U73122 or U73343 for 10 min at room temperature before the whole cell current recording.
(§2) Composition of bath solution was (in mM) 140 NaCl, 4 KCl, 1 CaCl2, 0.3 MgCl2, 10 HEPES (pH 7.4 adjusted with NaOH). The pipette solution for whole cell patch clamp experiments contained (mM) 130 KCl, 5 Na2-ATP, 3 EGTA, 0.1 CaCl2, 10 HEPES, 4 MgCl2, (pH 7.3 adjusted with KOH). GTP (0.3 mM) was supplemented in the pipette solution. Once the whole cell configuration was established, the cell was held at -80mV and ramp pulses (-120mV to +40mV for 0.4 sec) were applied every 5 sec. Various concentrations of the agonists were applied using a fast perfusion system (VC77SP, Warner Instruments, Hamden, CT, USA). The PKC inhibitor chelerythrine was included in the pipette solution.
(§3) The amplitude of the THIK-1 channel current at 0 mV was measured from every trace induced by the ramp pulse protocol to minimize the fraction of non-selective cationic leak current. The current amplitude before the agonist application was set as the basal current amplitude (I0). The effects of GPCRs on the THIK-1 channel were evaluated as the ratio of the current amplitude after the agonist application to I0 (Iagonist/I0). The EC50 values were estimated by fitting the concentration response curve to a Hill equation (Origin2016; OriginLab, Northampton, MA, USA). […] The effects of A2aR on the Gi/o-R-induced current increase of the THIK-1 channel was estimated as follows. […] All data are shown as means and S.D. The statistical significance between two or more than two groups was estimated by unpaired Student’s t-test or by a one-way analysis of variance (ANOVA) followed by Tukey’s test, respectively. […] Values of p≤ 0.05 were considered as statistically significant (***:p≤0.001, **:0.001<p≤0.01, *:0.01<p≤0.05, n.s.:p>0.05).

[2] = target: T1, M1R-YFP / ΔN-THIK-2 channel (Homo sapiens, UniProt P11229); assay: M1R-YFP-induced increase of ΔN-THIK-2 channel current in CHO-K1 cells; format: cell-based, mouse; details: oxo-M 10 μM
T1 construct: expressed in transfected cells; host or cells: CHO-K1
T1 sequence (P11229 1-460): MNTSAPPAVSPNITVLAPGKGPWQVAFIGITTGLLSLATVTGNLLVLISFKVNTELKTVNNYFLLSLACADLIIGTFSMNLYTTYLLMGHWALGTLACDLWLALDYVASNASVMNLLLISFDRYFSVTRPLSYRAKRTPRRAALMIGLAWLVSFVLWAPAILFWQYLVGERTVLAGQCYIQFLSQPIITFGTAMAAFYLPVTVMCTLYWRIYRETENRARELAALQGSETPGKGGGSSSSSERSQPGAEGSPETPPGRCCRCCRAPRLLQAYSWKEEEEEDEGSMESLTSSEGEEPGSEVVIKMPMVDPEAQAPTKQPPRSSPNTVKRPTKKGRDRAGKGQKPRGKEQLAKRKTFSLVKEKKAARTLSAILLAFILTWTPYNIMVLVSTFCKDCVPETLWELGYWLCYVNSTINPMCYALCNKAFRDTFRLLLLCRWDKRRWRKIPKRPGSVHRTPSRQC
Text: as §1, with “Cells were incubated in HBSS with U73122 or U73343 for 10 min at room temperature before the whole cell current recording.” left out

M1R = target: T2, M1R (Homo sapiens, UniProt P11229); assay: M1R-induced increase of THIK-1 channel current, whole cell patch clamp in HEK293T cells; format: cell-based; details: for Ioxo/I0: oxo-M 10 μM
T2 construct: expressed in transfected cells; host or cells: HEK293T
T2 sequence (P11229 1-460): T1 sequence (P11229 1-460)
Text: as §1, §2, §3

M2R = target: T3, M2R (Homo sapiens, UniProt P08172); assay: M2R-induced increase of THIK-1 channel current, whole cell patch clamp in HEK293T cells; format: cell-based
T3 construct: expressed in transfected cells; host or cells: HEK293T
T3 sequence (P08172 1-466): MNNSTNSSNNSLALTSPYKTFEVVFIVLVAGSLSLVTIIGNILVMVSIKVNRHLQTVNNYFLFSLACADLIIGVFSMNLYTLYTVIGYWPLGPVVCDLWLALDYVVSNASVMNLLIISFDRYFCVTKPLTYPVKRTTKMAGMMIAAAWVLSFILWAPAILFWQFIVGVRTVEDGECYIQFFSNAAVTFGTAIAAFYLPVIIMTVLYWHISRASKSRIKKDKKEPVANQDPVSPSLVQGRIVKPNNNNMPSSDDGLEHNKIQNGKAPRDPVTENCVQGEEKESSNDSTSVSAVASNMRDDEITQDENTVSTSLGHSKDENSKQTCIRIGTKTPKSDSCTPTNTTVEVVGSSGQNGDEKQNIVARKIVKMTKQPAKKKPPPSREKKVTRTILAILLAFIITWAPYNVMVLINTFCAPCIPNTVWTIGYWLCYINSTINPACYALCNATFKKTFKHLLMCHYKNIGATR
Text: as §1, with “PTX was solved in the culture medium (final concentration, 300 ng/mL) and cells were incubated in it for more than 16 h. U73122 or U73343 (final concentration, 2 μM each) was dissolved in Hanks’ Balanced Salt Solution (HBSS, Invitrogen, Carlsbad, CA, USA) supplemented with 1 mM Ca^2+ and 0.3 mM Mg^2+. Cells were incubated in HBSS with U73122 or U73343 for 10 min at room temperature before the whole cell current recording.” left out
(§4) The amplitude of the THIK-1 channel current at 0 mV was measured from every trace induced by the ramp pulse protocol to minimize the fraction of non-selective cationic leak current. […] The effects of GPCRs on the THIK-1 channel were evaluated as the ratio of the current amplitude after the agonist application to I0 (Iagonist/I0). […]

M3R = target: T4, M3R (Homo sapiens, UniProt P20309); assay: M3R-induced increase of THIK-1 channel current, whole cell patch clamp in HEK293T cells; format: cell-based
T4 construct: expressed in transfected cells; host or cells: HEK293T
Text: as §1, with “PTX was solved in the culture medium (final concentration, 300 ng/mL) and cells were incubated in it for more than 16 h. U73122 or U73343 (final concentration, 2 μM each) was dissolved in Hanks’ Balanced Salt Solution (HBSS, Invitrogen, Carlsbad, CA, USA) supplemented with 1 mM Ca^2+ and 0.3 mM Mg^2+. Cells were incubated in HBSS with U73122 or U73343 for 10 min at room temperature before the whole cell current recording.” left out
as §4

[3] = system: endogenously expressed channels in HEK293T cells; assay: Effect of receptor stimulation on the endogenous current in HEK293T cells without THIK-1; format: cell-based; details: no THIK-1
Text: The amplitude of the current increase at the 15th trace (ΔI15th) after the application of GABA or oxo-M were normalized to that at the 5th traces (ΔI5th) with or without additional activation of A2aR (ΔI15th/ΔI5th).
The current density at 0 mV (I0) in HEK293T cell transfected with indicated receptors and the effects of the receptor stimulation are shown as Mean and S.D.

THIK-1 channel [4] = system: THIK-1 channel; set-up: method as in PMID 24081450; details: cited from earlier work
THIK-1 channel [5] = system: THIK-1 channel; set-up: method as in PMID 34928298; details: cited from earlier work
[6] = chelerythrine 3 μM in pipette solution
[7] = chelerythrine 10 μM in pipette solution
[8] = chelerythrine 30 μM in pipette solution
[9] = concentration response of THIK-1 current increase
[10] = concentration response of THIK-1 current increase (Iagonist/I0), Hill fit

T4 sequence (P20309 whole entry): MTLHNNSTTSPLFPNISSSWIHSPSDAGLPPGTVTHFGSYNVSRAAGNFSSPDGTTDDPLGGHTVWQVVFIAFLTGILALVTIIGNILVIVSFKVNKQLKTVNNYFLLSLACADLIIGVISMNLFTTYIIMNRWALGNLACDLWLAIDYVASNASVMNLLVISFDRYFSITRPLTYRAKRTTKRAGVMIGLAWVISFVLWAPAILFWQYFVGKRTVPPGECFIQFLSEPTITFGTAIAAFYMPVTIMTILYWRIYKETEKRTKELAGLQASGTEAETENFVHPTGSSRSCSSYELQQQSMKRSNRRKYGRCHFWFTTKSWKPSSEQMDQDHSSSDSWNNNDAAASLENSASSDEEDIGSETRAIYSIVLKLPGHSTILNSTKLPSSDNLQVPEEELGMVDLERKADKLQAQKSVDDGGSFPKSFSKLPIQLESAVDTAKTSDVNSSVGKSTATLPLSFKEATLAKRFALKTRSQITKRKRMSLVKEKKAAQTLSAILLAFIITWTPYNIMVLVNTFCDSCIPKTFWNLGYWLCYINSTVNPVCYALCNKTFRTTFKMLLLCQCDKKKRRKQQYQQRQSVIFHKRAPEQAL

effect of M1R-YFP on ΔN-THIK-2 channel after PLC reagent [2]: not
Compound: COc1ccc2c(c1)CC[C@@H]1[C@@H]2CC[C@]2(C)[C@@H](NCCCCCCN3C(=O)CCC3=O)CC[C@@H]12 [U73343]
Basal current (I0) density of THIK-1 channel (THIK-1 channel [1]; THIK-1 + M1R, PLC reagent 2 μM 10 min): 46.5 ± 22.3 (10)^n.s pA/pF
Basal current (I0) density of THIK-1 channel (THIK-1 channel [1]; THIK-1 + M3R, PLC reagent 2 μM 10 min): 113.3 ± 122.1 (7)^n.s pA/pF
Basal current (I0) density of THIK-1 channel (THIK-1 channel [1]; THIK-1 + mGlu1, PLC reagent 2 μM 10 min): 121.0 ± 104.7 (12)^n.s pA/pF

Compound: COc1ccc2c(c[n+](C)c3c4cc5c(cc4ccc23)OCO5)c1OC [chelerythrine, Chelerythrine]
Basal current I0 (THIK-1 channel [1]; [6]): 43.1 ± 46.8 ^n.s. pA/pF
Basal current I0 (THIK-1 channel [1]; [7]): 56.4 ± 46.7 ^n.s. pA/pF
Basal current I0 (THIK-1 channel [1]; [8]): 22.8 ± 15.5 ^n.s. pA/pF
effect of PKC inhibitor on the effect of M1R (M1R; 3–30 μM in the pipette solution): did not inhibit the effect of M1R
Ioxo/I0 (M1R; [6]): 4.4 ± 2.4 ^n.s.
Ioxo/I0 (M1R; [7]): 2.2 ± 0.6 ^n.s.
Ioxo/I0 (M1R; [8]): 2.7 ± 1.0 ^n.s.

Compound: C[N+](C)(C)CC#CCN1CCCC1=O [oxo-M, oxotremorine-M]
n; Hill coefficient (M2R; [9]): 1.54 ± 0.37
EC50 (M2R; [10]): 62700 ± 35800 nM
n; Hill coefficient (M3R; [9]): 1.07 ± 0.43
EC50 (M3R; [10]): 400 ± 310 nM
EC50 (M1R; concentration response of THIK-1 current increase (Iagonist/I0), Hill fit, HEK293T): 270 ± 160 nM
n; Hill coefficient (M1R; concentration response of THIK-1 current increase, HEK293T): 1.14 ± 0.22
Ioxo/I0 (M1R; chelerythrine 0 μM (control of Table 3)): 2.8 ± 1.1
Effect of agonist (Iagonist/I0) ([3]; HEK293T transfected with M1R): 0.95 ± 0.15
Effect of agonist (Iagonist/I0) ([3]; HEK293T transfected with M2R): 0.97 ± 0.12
Effect of agonist (Iagonist/I0) ([3]; HEK293T transfected with M3R): 1.01 ± 0.13

Compound: CCCCCCCCCCCCCC(=O)O[C@@H]1[C@@H](C)[C@@]2(O)[C@@H](C=C(CO)C[C@]3(O)C(=O)C(C)=C[C@@H]23)[C@@H]2C(C)(C)[C@]12OC(C)=O [phorbol myristate acetate]
activation of the THIK-1 channel (THIK-1 channel [4]): did not activate

Compound: phosphatidyl inositol bisphosphate [PIP2]
activation of the THIK-1 channel (THIK-1 channel [5]): directly activate

Source: paper PMC10132538, “Regulation of the two-pore domain potassium channel, THIK-1 and THIK-2, by G protein coupled receptors” (PLOS ONE, 2023)
